Activity calls are given as the source filed them. The rule behind the calls is not given here.
Assays:
[1] = Drug uptake in human HFF-1 cells co-cultured with Staphylococcus aureus by measuring fluorescence signal at 10 uM incubated for 20 mins; type: ADME, cell-based; details: hff-1, 20 min
Cell membrane [2] = test: Induction of cell membrane damage in Staphylococcus aureus at 12.5 to 25 uM incubated for 3 hrs under dark condition by scanning electron microscopic analysis; type: subcellular; details: dose 12.5-25 µM
Cell membrane [3] = test: Induction of cell membrane damage in Staphylococcus aureus assessed as protein leakage at 10 uM preincubated with compound for 20 mins followed by 600 nm light irradiation for 45 min by absorption based plate reader analysis; type: subcellular; details: time 65.0 min
Staphylococcus aureus [4] = test: Downregulation of murB expression level in Staphylococcus aureus at 6.25 uM incubated for 1 hr in absence of light irradiation; type: functional
Cell membrane [5] = test: Induction of cell membrane damage in Pseudomonas aeruginosa assessed as protein leakage at 10 uM preincubated with compound for 20 mins followed by 600 nm light irradiation for 45 min by absorption based plate reader analysis; type: subcellular; details: time 65.0 min
Staphylococcus aureus [6] = test: Downregulation of valS expression level in Staphylococcus aureus at 6.25 uM incubated for 1 hr in absence of light irradiation; type: functional
Staphylococcus aureus [7] = test: Downregulation of murD expression level in Staphylococcus aureus at 6.25 uM incubated for 1 hr in absence of light irradiation; type: functional
[8] = Induction of […] ROS generation in PBS assessed as increase in hydroxyl radical by measuring increase in HPF fluorescence intensity at 10 uM irradiated with 660 nm 60 mW/cm2 light for 15 mins by HPF probe based plate reader analysis; type: functional
Staphylococcus aureus [9] = test: Downregulation of tyrS expression level in Staphylococcus aureus at 6.25 uM incubated for 1 hr in absence of light irradiation; type: functional
Cell membrane [10] = test: Induction of cell membrane damage in Pseudomonas aeruginosa assessed as DNA leakage at 10 uM preincubated with compound for 20 mins followed by 600 nm light irradiation for 45 min by absorption based plate reader analysis; type: subcellular; details: time 65.0 min
Staphylococcus aureus [11] = test: Downregulation of asnS expression level in Staphylococcus aureus at 6.25 uM incubated for 1 hr in absence of light irradiation; type: functional
Staphylococcus aureus [12] = test: Downregulation of femX expression level in Staphylococcus aureus at 6.25 uM incubated for 1 hr in absence of light irradiation; type: functional
Staphylococcus aureus [13] = test: Downregulation of spoVG expression level in Staphylococcus aureus at 6.25 uM incubated for 1 hr in absence of light irradiation; type: functional
Staphylococcus aureus [14] = test: (§1) In vivo antibacterial activity against methicillin-resistant Staphylococcus aureus ATCC 43300 infected in female BALB/c mouse skin wound infection model assessed as reduction in inflammatory cell infiltration in wound at 90 uM pre-infected with bacteria for 24 hrs followed by topical compound addition for 10 mins in presence of 600 nm 60 mW/cm2 light irradiation for 15 mins and measured on day 6 by H and E staining based analysis; type: functional, organism-based; details: time 6.0 day
Staphylococcus aureus [15] = test: Downregulation of lysS expression level in Staphylococcus aureus at 6.25 uM incubated for 1 hr in absence of light irradiation; type: functional
Staphylococcus aureus [16] = test: Downregulation of div1B expression level in Staphylococcus aureus at 6.25 uM incubated for 1 hr in absence of light irradiation; type: functional
Cell membrane [17] = test: Induction of cell membrane damage in Pseudomonas aeruginosa assessed as bacterial cell shrinkage at 10 uM preincubated with compound for 20 mins followed by 600 nm light irradiation for 45 min by SEM analysis; type: subcellular; details: time 65.0 min
Staphylococcus aureus [18] = test: Downregulation of ileS expression level in Staphylococcus aureus at 6.25 uM incubated for 1 hr in absence of light irradiation; type: functional
Staphylococcus aureus [19] = test: Antibiofilm activity against Staphylococcus aureus assessed as bacterial eradication by measuring green fluorescence signal at 10 uM incubated for 1 hrs in presence of light irradiation by calcein-AM fluorescence dye based analysis; type: functional, organism-based
Staphylococcus aureus [20] = test: Downregulation of sepF expression level in Staphylococcus aureus at 6.25 uM incubated for 1 hr in absence of light irradiation; type: functional
Staphylococcus aureus [21] = test: Downregulation of hisS expression level in Staphylococcus aureus at 6.25 uM incubated for 1 hr in absence of light irradiation; type: functional
Cell membrane [22] = test: Induction of cell membrane damage in Pseudomonas aeruginosa assessed as RNA leakage at 10 uM preincubated with compound for 20 mins followed by 600 nm light irradiation for 45 min by absorption based plate reader analysis; type: subcellular; details: time 65.0 min
Staphylococcus aureus [23] = test: Downregulation of glyQS expression level in Staphylococcus aureus at 6.25 uM incubated for 1 hr in absence of light irradiation; type: functional
[24] = Cytotoxicity against human HFF-1 cells assessed as cell viability at 40 uM in presence of 600 nm light irradiation for 45 mins by MTT assay relative to control; type: toxicity, cell-based; details: read-out: Activity
Pseudomonas aeruginosa [25] = test: In vivo antibacterial activity against […] Pseudomonas aeruginosa ATCC 27853 infected in female BALB/c mouse skin wound infection model assessed as reduction in wound area at 90 uM pre-infected with bacteria for 24 hrs followed by topical compound addition for 10 mins in presence of 600 nm 60 mW/cm2 light irradiation for 15 mins and measured on day 4; type: functional, organism-based; details: time 4.0 day
Cell membrane [26] = test: Induction of cell membrane damage in Staphylococcus aureus assessed as bacterial cell shrinkage at 10 uM preincubated with compound for 20 mins followed by 600 nm light irradiation for 45 min by SEM analysis; type: subcellular; details: time 65.0 min
Pseudomonas aeruginosa [27] = test: Antibacterial activity against Pseudomonas aeruginosa ATCC 27853 in presence of Muller-Hinton medium by broth microdilution method; type: functional
[28] = target: T1, DNA gyrase (Staphylococcus aureus) (UniProt P0A0K8+P20831); test: Inhibition of Staphylococcus aureus DNA gyrase supercoiling using relaxed pBR322 as substrate at 3.125 to 25 uM incubated for 30 mins in absence of light irradiation by gel based method; type: protein-complex assay; details: dose 3.125-25 µM
T1 sequence (P0A0K8 2-644 limits assumed): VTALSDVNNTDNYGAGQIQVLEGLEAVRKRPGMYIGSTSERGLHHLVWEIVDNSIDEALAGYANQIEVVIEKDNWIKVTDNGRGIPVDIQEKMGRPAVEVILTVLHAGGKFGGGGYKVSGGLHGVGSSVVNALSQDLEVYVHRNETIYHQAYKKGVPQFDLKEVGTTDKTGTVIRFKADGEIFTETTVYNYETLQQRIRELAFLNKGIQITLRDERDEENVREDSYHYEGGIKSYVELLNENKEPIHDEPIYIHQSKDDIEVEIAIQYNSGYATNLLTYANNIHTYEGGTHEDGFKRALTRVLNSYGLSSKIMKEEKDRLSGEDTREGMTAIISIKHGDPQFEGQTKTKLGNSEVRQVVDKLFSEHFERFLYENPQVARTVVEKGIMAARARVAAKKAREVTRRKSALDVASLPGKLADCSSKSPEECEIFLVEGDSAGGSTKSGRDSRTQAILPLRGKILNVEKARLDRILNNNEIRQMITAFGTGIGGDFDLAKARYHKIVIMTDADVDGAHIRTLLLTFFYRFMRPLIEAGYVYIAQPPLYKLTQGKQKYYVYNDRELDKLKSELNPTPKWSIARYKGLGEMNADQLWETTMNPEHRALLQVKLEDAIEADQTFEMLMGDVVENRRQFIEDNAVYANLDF
T1 sequence (P20831 whole entry partner): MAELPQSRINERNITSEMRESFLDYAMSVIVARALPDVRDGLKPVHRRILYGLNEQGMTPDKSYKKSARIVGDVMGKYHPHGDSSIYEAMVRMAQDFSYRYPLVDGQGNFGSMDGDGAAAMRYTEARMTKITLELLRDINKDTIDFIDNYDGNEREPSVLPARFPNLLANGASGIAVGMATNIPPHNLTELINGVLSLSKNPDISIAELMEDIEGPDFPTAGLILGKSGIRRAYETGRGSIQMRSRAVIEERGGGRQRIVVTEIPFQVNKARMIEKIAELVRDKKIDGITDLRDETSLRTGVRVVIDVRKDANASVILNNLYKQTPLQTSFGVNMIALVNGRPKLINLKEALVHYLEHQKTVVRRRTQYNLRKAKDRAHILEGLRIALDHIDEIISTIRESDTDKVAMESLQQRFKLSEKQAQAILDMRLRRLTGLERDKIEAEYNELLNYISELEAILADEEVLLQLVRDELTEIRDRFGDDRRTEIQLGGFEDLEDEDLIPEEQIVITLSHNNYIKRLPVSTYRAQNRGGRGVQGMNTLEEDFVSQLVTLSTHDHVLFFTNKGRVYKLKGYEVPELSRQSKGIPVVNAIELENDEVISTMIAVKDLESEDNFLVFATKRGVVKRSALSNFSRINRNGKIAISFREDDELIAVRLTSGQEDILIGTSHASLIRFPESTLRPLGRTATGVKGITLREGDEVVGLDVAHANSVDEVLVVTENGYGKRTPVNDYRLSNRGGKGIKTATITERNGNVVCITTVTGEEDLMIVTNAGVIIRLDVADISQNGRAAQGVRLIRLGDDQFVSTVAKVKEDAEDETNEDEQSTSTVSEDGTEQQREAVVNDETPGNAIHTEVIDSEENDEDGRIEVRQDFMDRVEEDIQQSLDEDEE

Cell membrane [29] = test: Induction of cell membrane damage in Staphylococcus aureus assessed as DNA leakage at 10 uM preincubated with compound for 20 mins followed by 600 nm light irradiation for 45 min by absorption based plate reader analysis; type: subcellular; details: time 65.0 min
Staphylococcus aureus [30] = test: Downregulation of hlgB protein expression in Staphylococcus aureus under light irradiation; type: functional
[31] = Induction of type-I ROS generation in PBS assessed as increase in hydroxyl radical by measuring increase in HPF fluorescence intensity at 10 uM irradiated with 660 nm 60 mW/cm2 light for 15 mins by HPF probe based plate reader analysis; type: functional
Staphylococcus aureus [32] = test: Selective drug uptake in Staphylococcus aureus co-cultured with human HFF-1 cells by measuring fluorescence signal at 10 uM incubated for 20 mins; type: ADME, organism-based; details: hff-1, 20 min
Staphylococcus aureus [33] = test: as §1, with “collagen deposition” for “reduction in inflammatory cell infiltration”; type: functional, organism-based; details: time 6.0 day
[34] = Induction of type-I ROS generation in PBS assessed as increase in singlet oxygen by measuring increase in SOSG fluorescence intensity at 10 uM irradiated with 660 nm 60 mW/cm2 light for 15 mins by SOSG probe based plate reader analysis; type: functional
[35] = target: T1, DNA gyrase (Staphylococcus aureus); test: Inhibition of Staphylococcus aureus DNA gyrase supercoiling assessed as decrease in supercoiled DNA band intensity using relaxed pBR322 as substrate at 25 uM incubated for 30 mins in absence of light irradiation by gel based method; type: protein-complex assay

With `C#CCC[n+]1c(/C=C/c2ccc(-c3ccc(N(c4ccc(OCCC[N+](C)(C)C)cc4)c4ccc(OCCC[N+](C)(C)C)cc4)cc3)s2)sc2ccccc21.[Br-].[Br-].[Br-]` the Drug uptake [1] was “Not_active”, the Activity (Cell membrane [2]) was “Active” and the Activity (Cell membrane [3]) was “Active”. The Activity (Staphylococcus aureus [4]) was “Active”, the Activity (Cell membrane [5]) was “Active” and the Activity (Staphylococcus aureus [6]) was “Active”. The Activity (Staphylococcus aureus [7]) was “Active”, the Activity [8] was “Active” and the Activity (Staphylococcus aureus [9]) was “Active”. The Activity (Cell membrane [10]) was “Active”, the Activity (Staphylococcus aureus [11]) was “Active” and the Activity (Staphylococcus aureus [12]) was “Active”. For the same molecule, the Activity (Staphylococcus aureus [13]) was “Active”, the Activity (Staphylococcus aureus [14]) was “Active” and the Activity (Staphylococcus aureus [15]) was “Active”. For the same molecule, the Activity (Staphylococcus aureus [16]) was “Active”, the Activity (Cell membrane [17]) was “Active” and the Activity (Staphylococcus aureus [18]) was “Active”. The Activity (Staphylococcus aureus [19]) was “Active”, the Activity (Staphylococcus aureus [20]) was “Active” and the Activity (Staphylococcus aureus [21]) was “Active”. For the same molecule, the Activity (Cell membrane [22]) was “Active”, the Activity (Staphylococcus aureus [23]) was “Active” and the viability at 0.75 h, 40 µM [24] was under 90%. The Activity (Pseudomonas aeruginosa [25]) was “Active”, the Activity (Cell membrane [26]) was “Active” and the MIC (Pseudomonas aeruginosa [27]) was at most 100 µM. The inhibition [28] was “Active”, the Activity (Cell membrane [29]) was “Active” and the Activity (Staphylococcus aureus [30]) was “Active”. For the same molecule, the Activity [31] was “Active”, the Drug uptake (Staphylococcus aureus [32]) was “Active” and the Activity (Staphylococcus aureus [33]) was “Active”. The Activity [34] was “Active” and the inhibition [35] was “Active”.

From ChEMBL document CHEMBL6134849, “A Water-Soluble Aggregation-Induced Emission Photosensitizer with Intrinsic Antibacterial Activity as an Antiplanktonic and Antibiofilm Therapeutic Agent” (J Med Chem, 2025)
